Results published in patent US8153410B2, “Alternate morpheein forms of allosteric proteins as a target for the development of bioactive molecules” (Fox Chase Cancer Center, priority 2003, dated 2012).
pIC50: −log10 of the molar value. Where two headings read alike, the source gives them in different places.

Legend:
Type in all cases: biochemical
[1] = target: P. aeruginosa PBGS (Pseudomonas aeruginosa, UniProt Q59643); assay: native PAGE gel shift of P. aeruginosa PBGS; settings: P. aeruginosa PBGS ~1 mg/ml
Chain of P. aeruginosa PBGS (Q59643 whole entry): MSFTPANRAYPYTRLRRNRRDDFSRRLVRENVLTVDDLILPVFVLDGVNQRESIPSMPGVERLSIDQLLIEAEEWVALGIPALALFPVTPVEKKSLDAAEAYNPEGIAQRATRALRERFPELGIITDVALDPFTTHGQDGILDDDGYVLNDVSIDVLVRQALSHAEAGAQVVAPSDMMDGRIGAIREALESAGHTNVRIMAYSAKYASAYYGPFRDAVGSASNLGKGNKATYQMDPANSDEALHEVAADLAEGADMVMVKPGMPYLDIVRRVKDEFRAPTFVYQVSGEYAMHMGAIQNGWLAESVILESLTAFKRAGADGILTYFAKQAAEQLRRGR
Protocol: (§1) FIG. 33 illustrates the species-specific effects of morphlock-1 on PBGS—FIG. 33(a) Dose-response curves showing morphlock-1 inhibition of pea PBGS at 1 μg/ml (∘) and human PBGS at 0.6 μg/ml (Δ) and 10 μg/ml (□). The proteins were incubated in the presence of 10× inhibitor for 30 minutes at 37° C. prior to assay. The concentrations on the X-axis represent the final concentration of morphlock-1 in the assay. FIG. 33(b). The IC50 for morphlock-1 is a function of pea PBGS concentration. IC50 values were determined as per part (a) using the noted concentrations of pea PBGS. (c) Native PAGE evaluation of the effect of morphlock-1 on the quaternary structure equilibria of PBGS (˜1 mg/ml) from D. melanogaster, P. aeruginosa, V. cholerae, and H. sapiens. Note that the charge/mass ratio is not the same for PBGS from different species.
(§2) The putative morphlock-1 binding site is phylogenetically variable (see below). As such, morphlock-1 would not be expected to inhibit human PBGS. The effect of morphlock-1 on the activity of human PBGS was also determined at the midpoint of the protein concentration-dependent specific activity. […] To further establish the species-selectivity of morphlock-1, the gel shift assay was also carried out for PBGS from P. aeruginosa, and V. cholerae.

[2] = target: T1, pea PBGS (Pisum sativum, UniProt P30124); assay: pea PBGS activity assay (inhibition, protein concentration dependent specific activity); parameters: made in house
T1 sequence (P30124 69-398 limits assumed): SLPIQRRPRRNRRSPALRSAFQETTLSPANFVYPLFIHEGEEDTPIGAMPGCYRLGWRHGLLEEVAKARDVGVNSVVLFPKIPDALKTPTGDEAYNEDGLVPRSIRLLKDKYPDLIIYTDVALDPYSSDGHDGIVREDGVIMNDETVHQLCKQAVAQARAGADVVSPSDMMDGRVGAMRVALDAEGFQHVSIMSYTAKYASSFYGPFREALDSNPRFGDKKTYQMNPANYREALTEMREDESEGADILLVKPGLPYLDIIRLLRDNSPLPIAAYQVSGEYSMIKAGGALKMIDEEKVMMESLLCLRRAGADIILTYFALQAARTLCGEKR
Protocol: FIG. 32(a) The inhibitor morphlock-1 is illustrated as posed by Glide. The subunits A, B, and E are illustrated as ribbon diagram. Morphlock-1 is shown with carbon atoms and illustrated as ball and stick. FIG. 32(b) The chemical structure of morphlock-1. […] Pea PBGS was incubated with various concentrations of morphlock-1 (in a DMSO solution). Each concentration of morphlock-1 with a fixed amount of DMSO was incubated with protein for 30 minutes at 37° C. prior to resolution on 12.5% polyacrylamide native PhastGels. […] (d) The protein concentration dependence of pea PBGS specific activity is illustrated. […] The final concentration of morphlock-1 in the inhibited assay was 5 μM, and the concentration of PBGS in the inhibited and control assays ranged from 0.05-50 μg/mL (0.014-1.4 μM).
The proteins were incubated in the presence of 10× inhibitor for 30 minutes at 37° C. prior to assay. The concentrations on the X-axis represent the final concentration of morphlock-1 in the assay. FIG. 33(b). […] IC50 values were determined as per part (a) using the noted concentrations of pea PBGS. (c) Native PAGE evaluation of the effect of morphlock-1 on the quaternary structure equilibria of PBGS (˜1 mg/ml) from D. melanogaster, P. aeruginosa, V. cholerae, and H. sapiens. Note that the charge/mass ratio is not the same for PBGS from different species.
The dose response curve for morphlock-1 inhibition of pea PBGS (FIG. 37a) was initially carried out at 0.03 μM pea PBGS, where the hexamer is a significant component of the equilibrium mixture; the morphlock-1 concentration was varied from 0.1 μM to 0.1 mM.
The dose response curve for morphlock-1 inhibition of pea PBGS (FIG. 33(a)) was initially carried out at 0.03 μM pea PBGS, where the hexamer is a significant component of the equilibrium, in order to optimize the observed inhibition; the morphlock-1 concentration was varied from 0.1 μM to 0.1 mM.

[3] = target: T2, human PBGS (Homo sapiens, UniProt P13716); assay: human PBGS activity assay with morphlock-1
T2 sequence (P13716 1-330): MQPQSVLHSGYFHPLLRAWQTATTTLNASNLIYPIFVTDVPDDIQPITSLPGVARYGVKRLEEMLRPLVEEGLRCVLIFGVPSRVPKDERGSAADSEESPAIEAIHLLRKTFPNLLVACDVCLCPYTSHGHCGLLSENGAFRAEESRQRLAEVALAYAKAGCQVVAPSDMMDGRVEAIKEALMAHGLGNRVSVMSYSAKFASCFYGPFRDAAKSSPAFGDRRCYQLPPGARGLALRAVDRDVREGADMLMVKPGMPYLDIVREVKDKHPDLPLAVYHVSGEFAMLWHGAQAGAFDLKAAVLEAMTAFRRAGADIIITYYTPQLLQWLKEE
Protocol: as §1, §2

O=C1Nc2ccc(S(=O)(=O)NCC(O)c3ccc([N+](=O)[O-])cc3)c3cccc1c23 (stereo not drawn) [morphlock-1, 2-oxo-1,2-dihydro-benzo(cd)indole-6-sulfonic acid[2-hydroxy-2-(4-nitro-phenyl)-ethyl]-amide]
perturbation of the quaternary structure equilibrium, gel shift assay [1]: did not cause any perturbation of the quaternary structure equilibrium
pIC50 ([2]; 0.03 μM pea PBGS, morphlock-1 0.1 μM to 0.1 mM, 30 minutes at 37° C. prior to assay, read-out: apparent IC50 of morphlock-1 inhibition of pea PBGS): 5.92
pIC50 ([2]; low protein concentration, activity assays, read-out: IC50 by kinetic analysis / activity assays (and native PAGE with more sensitive staining)): ~6.00
K(0.5) of the protein concentration dependent specific activity in the presence of morphlock-1 ([2]; morphlock-1 set at 5 μM, K(0.5) without morphlock-1 0.064 μM): 0.134 µM
effect on the protein concentration-dependent specific activity for human PBGS ([3]; 5 μM morphlock-1): has no affect
inhibition of human PBGS activity ([3]; midpoint of the protein concentration-dependent specific activity): does not inhibit human PBGS
